Assay results taken from US20250129334A1, “LINEAGE SPECIFICATION DURING STEM CELL TRANSITION” (Amniotics AB, priority 2021, published 2025).

System: HE cells
Test: Transplantation of treated HE cells into irradiated NSG mice
Type: in vivo
Experimental: Sorted human HE cells (350,000) were mixed with OP9-DL1 stroma (60,000) and subcultured for 3 days with or without DCA (3 mM) on Matrigel (16 μg/cm^2, Corning)-coated 12-well plates in HE medium (32). Between 100,000-150,000 cells from control or DCA samples were transplanted into sub lethally irradiated (300 cGy) 8-week-old female NOD/Cg-Prkdc^scid Il2^tm1Wj1/SzJ mice (NSG, The Jackson Laboratory) together with 20,000 whole BM support cells from C57BV6.SJL mice (CD45.1^+/CD45.2^+, in house breeding). Cells were transplanted in single cell solution in 250 μL PBS with 2% FBS through intravenous tail vein injection. Drinking water of transplanted NSG mice was supplemented with ciprofloxacin (125 mg/L, HEXAL) for 3 weeks after transplantation to prevent infection. Mice were housed in a controlled environment with 12-hour light-dark cycles with chow and water provided ad libitim. Experiments and animal care were performed in accordance with the Lund University Animal Ethical Committee.
Peripheral blood (PB) was collected from the tail vein into EDTA-coated microvette tubes (Sarstedt, Cat #20.1341.100). […]
Bone marrow was analyzed at the 12-week transplantation endpoint. […]

Compound: O=C(O)C(Cl)Cl [DCA, dichloroacetate]
- increase of CLP (common lymphoid progenitor) (FIG. 3, n, BM week 12): 3 fold
- human CD45+ cells in the peripheral blood (week 8, 3-day DCA-treated HE cells): around 1%
